Experimental data from PubChem BioAssay (NCI).
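In this assay, cells in 96-well plates receive the compound at five concentrations for 48 hours. Endpoints are linearly interpolated between the surrounding concentrations. GI50 marks 50% less growth. TGI: concentration producing complete growth inhibition.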

Key:
Assay in all cases: DTP human tumour cell line panel, 48 h
KM20L2 colon = system: KM20L2 colon
LXFL 529 NSCLC = system: LXFL 529 NSCLC
M19-MEL melanoma = system: M19-MEL melanoma
XF 498 CNS = system: XF 498 CNS
DLD-1 colon = system: DLD-1 colon
DMS 273 small cell lung = system: DMS 273 small cell lung
RXF-631 renal = system: RXF-631 renal

N#C[S-].[La+3].c1cnc2c(c1)ccc1cccnc12.c1cnc2c(c1)ccc1cccnc12.c1cnc2c(c1)ccc1cccnc12
GI50 (KM20L2 colon): 0.986 µM
TGI (KM20L2 colon): 16.4 µM
GI50 (LXFL 529 NSCLC): 1.83 µM
TGI (LXFL 529 NSCLC): 15.3 µM
GI50 (M19-MEL melanoma): 0.688 µM
TGI (M19-MEL melanoma): 3.69 µM
GI50 (XF 498 CNS): 4.03 µM
TGI (XF 498 CNS): 9.42 µM

Cc1n(CC(C)C)c2c([n+]1C)C(=O)c1ccccc1C2=O
TGI (DLD-1 colon): 0.975 µM
TGI (DMS 273 small cell lung): 0.786 µM
TGI (KM20L2 colon): 1.6 µM
TGI (LXFL 529 NSCLC): 0.508 µM
TGI (M19-MEL melanoma): 0.216 µM
TGI (XF 498 CNS): 1.46 µM

CS(=O)(=O)C(C#N)c1nc2ccccc2nc1Cl (stereo not given)
TGI (DLD-1 colon): > 100 µM
TGI (DMS 273 small cell lung): > 100 µM
TGI (LXFL 529 NSCLC): > 100 µM
TGI (M19-MEL melanoma): > 100 µM
TGI (XF 498 CNS): > 100 µM

O=C1COc2cc(NC(=S)Nc3ccccc3)ccc2N1
TGI (DLD-1 colon): > 100 µM
TGI (DMS 273 small cell lung): > 100 µM
TGI (KM20L2 colon): > 100 µM
TGI (LXFL 529 NSCLC): > 100 µM
TGI (M19-MEL melanoma): > 100 µM
TGI (RXF-631 renal): > 100 µM
TGI (XF 498 CNS): > 100 µM

CCC(CC)NC1=C(NC(C)=O)C(=O)c2ccccc2C1=O
TGI (DLD-1 colon): > 50 µM
TGI (DMS 273 small cell lung): > 50 µM
TGI (KM20L2 colon): > 50 µM
TGI (LXFL 529 NSCLC): > 50 µM
TGI (M19-MEL melanoma): > 50 µM
TGI (XF 498 CNS): > 50 µM

CC1(C)OCN(c2ccc(N3CCOCC3)cc2)Cn2c1nc1ccccc12
TGI (DLD-1 colon): > 100 µM
TGI (DMS 273 small cell lung): > 100 µM
TGI (KM20L2 colon): > 100 µM
TGI (LXFL 529 NSCLC): > 100 µM
TGI (M19-MEL melanoma): > 100 µM

CC1(c2cccc(C3CC4(CCC3=O)OCCCCO4)c2)OCCO1 (stereo not given)
TGI (DLD-1 colon): > 100 µM
TGI (DMS 273 small cell lung): > 100 µM
TGI (KM20L2 colon): > 100 µM
TGI (LXFL 529 NSCLC): > 100 µM
TGI (M19-MEL melanoma): > 100 µM

CCOC1C(Br)Cn2c(=O)c3cc4ccccc4cc3c(=O)n2C1C (stereo not given)
TGI (DLD-1 colon): > 100 µM
TGI (DMS 273 small cell lung): > 100 µM
TGI (KM20L2 colon): > 100 µM
TGI (LXFL 529 NSCLC): > 100 µM
TGI (M19-MEL melanoma): > 100 µM
TGI (XF 498 CNS): > 100 µM

CCN1C[C@]2(C)CC[C@H](O)C34C1C(C[C@@H]32)[C@@]1(O)CC[C@H]2C[C@@H]4[C@@H]1[C@H]2O
TGI (DLD-1 colon): > 100 µM
TGI (DMS 273 small cell lung): > 100 µM
TGI (KM20L2 colon): > 100 µM
TGI (LXFL 529 NSCLC): > 100 µM
TGI (M19-MEL melanoma): > 100 µM

COc1cc(C=O)c(-c2c(C=O)ccc3c2OCO3)c(OC)c1OC
TGI (DLD-1 colon): > 100 µM
TGI (DMS 273 small cell lung): > 100 µM
TGI (KM20L2 colon): > 100 µM
TGI (LXFL 529 NSCLC): > 100 µM
TGI (M19-MEL melanoma): > 100 µM
TGI (RXF-631 renal): > 100 µM

Cc1ccc2c(ccc(/C=C/c3ccc(O)c4ncccc34)[n+]2C)c1
TGI (DLD-1 colon): 38.3 µM
TGI (DMS 273 small cell lung): 17.2 µM
TGI (KM20L2 colon): 20.1 µM
TGI (LXFL 529 NSCLC): 19.7 µM
TGI (M19-MEL melanoma): 22.6 µM
TGI (XF 498 CNS): 16.8 µM
